What was measured:
[1] = system: dephosphorylated neurofilament-H; experiment: Axonal damage: dephosphorylated neurofilament-H in spinal cord (Western blot, immunohistochemistry); format: in vivo, mouse; conditions: for average relative densities of neurofilament-H: spinal cord homogenates, Western blot, 6.1 for rat IgG or PBS treated control mice; for effect on amount of axonal damage: spinal cord, dephosphorylated neurofilament-H
Source text: Frozen sections from lumbar spinal cord (10 μm) were acetone-fixed and immunostained for oligodendrocyte content with an antibody against CNPase (Sigma; diluted 1:100); for axonal damage with an antibody against non-phosphorylated neurofilament-H (SM 1-32; Stemberger Monoclonals Incorporated, Lutherville, Md., USA; diluted 1:1000), and for GluR2 and NR1 content using mouse mAbs obtained from Zymed Laboratories Inc., Carlton, San Francisco, Calif. Antibody staining was visualized with an avidin:biotinylated enzyme complex (Vector Laboratories, Burlingame, Calif., USA). Sections were viewed under a light microscope, and cells stained with the anti-CNPase and SM 1-32 antibodies were counted.
PBS-perfused spinal cords were homogenized in lysis buffer (50 mM Tris pH 7.4, 100 μM EDTA, 0.25 M sucrose, 1% sodium dodecyl sulfate [SDS], 1% Nonidet P-40 [NP40], 1 μg/mL leupeptin, 1 μg/mL pepstatin A, and 100 μM phenylmethylsulfonylfluoride) at 4° C. using a motor-driven homogenizer (Virtus, Gardiner, N.Y.). Spinal cord lysates from each group of mice were pooled and centrifuged at 10000 g for 10 minutes at 4° C. to remove tissue debris. Protein concentrations of the supernatants were determined as described (Peterson, 1983), and 100 μg of protein resolved on 10% polyacrylamide SDS-gels under reducing conditions and then electrophoretically transferred to Hybond C Extra nitrocellulose membranes (Amersham Life Science, England). The membranes were blocked with 3% bovine serum albumin in TBS-T (20 mM Tris, 137 mM NaCl, pH 7.6 containing 0.1% Tween-20) for 2 hours at room temperature. Immunodetection was accomplished by incubation overnight at 4° C. with SM1-32 (1:500 dilution), anti-CNPase (1:100 dilution) antibody, or anti-GluR2 and NR1 mAbs (1:200 dilution). The membranes were washed thrice with TBS-T and incubated with horseradish peroxidase-conjugated anti-mouse IgG (Sigma) diluted 1:5000 in TBS-T. Immunoreactivity was detected by Enhanced Chemiluminescence (Amersham International plc. England) and autoradiography.

oligodendrocytes = conditions: Smith et al., 2000, Pitt et al.; cited from earlier work
EAE = conditions: Smith et al., 2000, Pitt et al.; cited from earlier work
[2] = system: N-methyl-D-aspartate (NMDA) receptor; conditions: U.S. Pat. No. 5,804,550; cited from earlier work
hippocampus neurons = conditions: Saura et al., 1999; cited from earlier work

Row | Compound | average relative densities of neurofilament-H [1] | effect on amount of axonal damage [1] | excitotoxic effects of glutamate on oligodendrocytes (oligodendrocytes) | pathogenesis of EAE (EAE) | glutamate binding to the NMDA receptor [2] | neuronal death in the hippocampus injured by NMDA (hippocampus neurons)
1 | NS(=O)(=O)c1cccc2c1c([N+](=O)[O-])cc1nc(O)c(O)nc12 [NBQX, 2,3-dihydroxy-6-nitro-7-sulfamoylbenzo(f)quinoxaline] | 3.5 | almost halved the amount of axonal damage | inhibits the excitotoxic effects of glutamate on oligodendrocytes | slightly ameliorates the pathogenesis of EAE | – | –
2 | Gly-Pro-Glu [GPE] | 3.2 | almost halved the amount of axonal damage | – | – | inhibits glutamate binding | prevents neuronal death

Reference: patent US7192931B2, “Treatment of demyelinating diseases” (Neuren Pharmaceuticals Ltd., priority 2000, dated 2007)
